Measurements: ChEMBL document CHEMBL4842370, “Discovery of 1-(phenylsulfonyl)-1H-indole-based multifunctional ligands targeting cholinesterases and 5-HT6 receptor with anti-aggregation properties against amyloid-beta and tau” (Eur J Med Chem, 2021)
Active and inactive are the calls of the source. No cut-off for these calls is given here.

What was measured:
[1] = molecular target: T1, 5-hydroxytryptamine receptor 6 (Homo sapiens, UniProt P50406); experiment: Displacement of [3H]-LSD from human 5HT6R expressed in CHO-K1 cell membranes incubated for 1 hr by scintillation counter method; parameters: species or system Membrane
[2] = molecular target: T2, Amyloid-beta precursor protein (Homo sapiens, UniProt P05067); experiment: Inhibition of HFIP-pretreated human recombinant amyloid beta (1 to 42) self aggregation at 10 uM incubated up to 48 hrs under shaking condition and measured every 3 min by Thioflavin T based fluorescence assay relative to control
Cholinesterase = Cholinesterase (Equus caballus, UniProt P81908)
Description: Inhibition of equine serum BuChE using butyrylthiocholine as substrate incubated for 5 mins followed by substrate addition and measured after 5 mins by spectrophotometric based Ellman's method

Acetylcholinesterase = Acetylcholinesterase (Electrophorus electricus, UniProt O42275); experiment: Inhibition of electric eel AChE using acetylthiocholine iodide as substrate incubated for 5 mins followed by substrate addition and measured after 5 mins by spectrophotometric based Ellman's method
[3] = molecular target: T2, Amyloid-beta precursor protein; experiment: Inhibition of amyloid beta (1 to 42) (unknown origin) aggregation expressed in Escherichia coli BL21 (DE3) at 10 uM incubated for 24 hrs by microplate reader assay relative to control
Homo sapiens = species on record: Homo sapiens; experiment: Inhibition of tau protein (unknown origin) expressed in Escherichia coli BL21 (DE3) at 10 uM incubated for 24 hrs by microplate reader assay relative to control
in vitro [4] = conditions: mouse, liver microsomes
Cytochrome P450 3A4 = Cytochrome P450 3A4 (Homo sapiens, UniProt P08684); experiment: Inhibition of CYP3A4 (unknown origin) at <=10 uM; format: ADME
[5] = molecular target: T1, 5-hydroxytryptamine receptor 6; experiment: Antagonist activity at human 5HT6R expressed in 1321N1 cells assessed as inhibition of […] cAMP production measured after 30 mins by TR-FRET assay; format: functional, cell-based; conditions: filed as antagonist
HepG2 = experiment: Cytotoxicity against human HepG2 cells assessed as cell reduction in cell viability incubated for 48 hrs by MTS assay; format: cell-based; conditions: HepG2, 48 h
in vitro [6] = conditions: PAMPA
Description: Permeability coefficient of the compound in PBS buffer incubated for 5 hrs by PAMPA-based LC-MS analysis

[7] = molecular target: T2, Amyloid-beta precursor protein; experiment: Inhibition of HFIP-pretreated human recombinant amyloid beta (1 to 42) self aggregation incubated up to 48 hrs under shaking condition and measured every 3 min by Thioflavin T based fluorescence assay
Cytochrome P450 2D6 = Cytochrome P450 2D6 (Homo sapiens, UniProt P10635); experiment: Inhibition of CYP2D6 (unknown origin) at <=10 uM; format: ADME
Sequence of Cytochrome P450 2D6 (P10635 whole entry): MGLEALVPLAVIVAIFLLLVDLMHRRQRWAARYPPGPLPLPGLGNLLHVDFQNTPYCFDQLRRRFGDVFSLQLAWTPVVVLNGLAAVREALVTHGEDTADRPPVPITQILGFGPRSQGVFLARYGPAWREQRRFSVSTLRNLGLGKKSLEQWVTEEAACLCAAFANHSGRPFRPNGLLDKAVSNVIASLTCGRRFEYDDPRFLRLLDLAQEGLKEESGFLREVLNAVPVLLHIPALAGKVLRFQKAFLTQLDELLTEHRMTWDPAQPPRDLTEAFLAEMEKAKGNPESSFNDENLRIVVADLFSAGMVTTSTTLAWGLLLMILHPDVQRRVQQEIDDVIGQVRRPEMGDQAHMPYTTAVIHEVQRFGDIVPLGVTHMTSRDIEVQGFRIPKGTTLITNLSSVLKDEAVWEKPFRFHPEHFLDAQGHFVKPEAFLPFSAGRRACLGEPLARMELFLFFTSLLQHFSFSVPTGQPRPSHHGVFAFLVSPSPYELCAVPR

Sequence of Acetylcholinesterase (O42275 whole entry): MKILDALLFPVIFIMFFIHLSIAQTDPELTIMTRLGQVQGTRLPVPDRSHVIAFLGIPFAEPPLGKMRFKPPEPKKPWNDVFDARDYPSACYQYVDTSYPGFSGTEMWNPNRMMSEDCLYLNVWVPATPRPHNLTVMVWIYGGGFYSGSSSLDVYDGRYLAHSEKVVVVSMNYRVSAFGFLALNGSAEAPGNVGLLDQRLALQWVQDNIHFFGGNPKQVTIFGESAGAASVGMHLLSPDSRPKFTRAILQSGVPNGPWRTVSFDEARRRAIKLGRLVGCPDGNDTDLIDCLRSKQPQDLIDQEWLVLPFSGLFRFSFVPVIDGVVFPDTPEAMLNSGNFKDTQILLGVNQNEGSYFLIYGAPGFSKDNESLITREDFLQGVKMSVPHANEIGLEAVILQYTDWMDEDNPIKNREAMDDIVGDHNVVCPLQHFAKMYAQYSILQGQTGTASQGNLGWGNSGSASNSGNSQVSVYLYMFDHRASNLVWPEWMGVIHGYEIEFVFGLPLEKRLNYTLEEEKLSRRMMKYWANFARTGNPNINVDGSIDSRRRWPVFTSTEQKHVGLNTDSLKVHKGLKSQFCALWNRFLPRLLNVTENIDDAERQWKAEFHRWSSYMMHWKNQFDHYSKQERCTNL
T1 sequence (P50406 whole entry): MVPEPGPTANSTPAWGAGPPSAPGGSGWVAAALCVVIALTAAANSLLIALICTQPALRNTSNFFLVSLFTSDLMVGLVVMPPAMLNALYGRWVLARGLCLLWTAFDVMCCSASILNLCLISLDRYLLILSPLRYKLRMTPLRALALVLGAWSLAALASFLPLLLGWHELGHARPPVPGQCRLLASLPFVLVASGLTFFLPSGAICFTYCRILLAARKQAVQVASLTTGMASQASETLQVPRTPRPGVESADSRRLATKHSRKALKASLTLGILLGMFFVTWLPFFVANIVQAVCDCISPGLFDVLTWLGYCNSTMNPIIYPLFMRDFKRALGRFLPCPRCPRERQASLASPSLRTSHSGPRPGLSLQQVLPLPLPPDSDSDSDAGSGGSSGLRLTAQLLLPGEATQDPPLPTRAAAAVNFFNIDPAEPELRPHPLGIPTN
Sequence of Cholinesterase (P81908 whole entry): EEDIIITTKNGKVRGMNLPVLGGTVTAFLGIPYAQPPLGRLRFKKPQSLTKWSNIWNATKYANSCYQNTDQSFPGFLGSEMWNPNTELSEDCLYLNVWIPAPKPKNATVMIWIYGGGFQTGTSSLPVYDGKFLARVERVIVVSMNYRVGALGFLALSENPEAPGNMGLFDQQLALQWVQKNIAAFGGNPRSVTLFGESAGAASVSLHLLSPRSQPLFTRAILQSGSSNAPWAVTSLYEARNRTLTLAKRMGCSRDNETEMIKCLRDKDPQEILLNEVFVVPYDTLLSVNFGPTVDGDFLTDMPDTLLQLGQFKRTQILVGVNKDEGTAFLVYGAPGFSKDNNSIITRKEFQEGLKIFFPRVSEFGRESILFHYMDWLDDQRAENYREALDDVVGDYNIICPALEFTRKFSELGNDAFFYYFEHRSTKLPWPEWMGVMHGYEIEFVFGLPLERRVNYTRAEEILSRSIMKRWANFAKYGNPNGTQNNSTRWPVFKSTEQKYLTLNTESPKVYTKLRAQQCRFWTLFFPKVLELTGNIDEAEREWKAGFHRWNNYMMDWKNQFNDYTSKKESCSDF
T2 sequence (P05067 whole entry): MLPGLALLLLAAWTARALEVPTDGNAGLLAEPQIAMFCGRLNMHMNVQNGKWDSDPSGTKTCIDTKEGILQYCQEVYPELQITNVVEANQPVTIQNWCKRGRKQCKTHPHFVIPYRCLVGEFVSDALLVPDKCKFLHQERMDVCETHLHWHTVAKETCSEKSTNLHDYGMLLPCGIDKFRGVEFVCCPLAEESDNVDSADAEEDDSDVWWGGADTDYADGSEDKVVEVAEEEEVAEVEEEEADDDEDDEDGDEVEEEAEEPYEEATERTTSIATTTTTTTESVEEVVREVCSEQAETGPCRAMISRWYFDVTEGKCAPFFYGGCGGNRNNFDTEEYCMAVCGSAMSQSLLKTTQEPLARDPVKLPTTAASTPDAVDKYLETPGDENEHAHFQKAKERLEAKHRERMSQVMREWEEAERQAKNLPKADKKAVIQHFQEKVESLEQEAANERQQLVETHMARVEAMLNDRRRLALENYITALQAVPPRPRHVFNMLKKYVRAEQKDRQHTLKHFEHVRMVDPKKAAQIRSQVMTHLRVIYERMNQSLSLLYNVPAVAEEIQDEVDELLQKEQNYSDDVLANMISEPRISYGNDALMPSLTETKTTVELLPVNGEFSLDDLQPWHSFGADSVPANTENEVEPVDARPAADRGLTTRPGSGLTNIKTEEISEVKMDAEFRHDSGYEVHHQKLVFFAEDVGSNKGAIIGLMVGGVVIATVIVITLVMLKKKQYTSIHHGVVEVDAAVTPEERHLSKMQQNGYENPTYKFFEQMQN
Sequence of Cytochrome P450 3A4 (P08684 whole entry): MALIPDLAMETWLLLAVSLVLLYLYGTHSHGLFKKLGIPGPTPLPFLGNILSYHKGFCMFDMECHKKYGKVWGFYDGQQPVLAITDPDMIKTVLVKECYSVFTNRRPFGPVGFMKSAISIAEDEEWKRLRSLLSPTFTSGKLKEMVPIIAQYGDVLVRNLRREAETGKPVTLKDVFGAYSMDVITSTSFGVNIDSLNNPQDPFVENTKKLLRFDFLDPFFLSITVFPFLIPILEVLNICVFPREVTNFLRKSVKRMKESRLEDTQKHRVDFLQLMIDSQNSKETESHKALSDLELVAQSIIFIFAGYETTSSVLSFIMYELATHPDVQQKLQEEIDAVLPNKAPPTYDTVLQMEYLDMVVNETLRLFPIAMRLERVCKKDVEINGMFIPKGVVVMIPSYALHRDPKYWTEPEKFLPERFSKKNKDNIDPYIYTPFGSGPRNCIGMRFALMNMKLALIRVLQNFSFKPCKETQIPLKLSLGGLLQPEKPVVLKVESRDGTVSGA

SMILES | Ki [1] | inhibition [2] | IC50 (Cholinesterase) | IC50 (Acetylcholinesterase; read-out: IC50) | inhibition [3] | inhibition (Homo sapiens) | IC50 (Acetylcholinesterase) | metabolised at 2 h (in vitro [4]) | inhibition (INH) (Cytochrome P450 3A4) | Kb [5] | IC50 (HepG2) | Papp at 5 h (in vitro [6]) | IC50 [7] | inhibition (INH) (Cytochrome P450 2D6)
O=S(=O)(c1ccccc1)n1ccc2c(OCCNCCCCCNc3c4c(nc5ccccc35)CCCC4)cccc21 | 0.007 µM | 73.2% | 0.00217 µM | 0.303 µM | – | – | – | – | – | – | – | – | – | –
CCN(C)C(=O)Oc1cccc([C@H](C)N(C)C)c1 | – | 86.6% | – | – | – | – | – | – | – | – | – | – | – | –
O=S(=O)(c1ccccc1)n1ccc2c(OCCNCCNCc3ccc(F)cc3)cccc21 | 0.0001 µM | 73.4% | 1.3 µM | 6210 µM | 23.7% | 58% | – | – | – | – | – | – | – | –
O=S(=O)(c1ccccc1)n1ccc2c(OCCNCCCCCNCc3ccccc3)cccc21 | 0.012 µM | 62.5% | 0.394 µM | – | 36.5% | 51.7% | Not Active | – | – | – | – | – | – | –
CCN(C)C(=O)Oc1cccc(CNCCNCCOc2cccc3c2ccn3S(=O)(=O)c2ccccc2)c1 | 0.015 µM | 68.1% | 0.454 µM | – | 77.5% | 68.7% | Not Active | 40% | Not Active | 0.048 µM | 21.1 µM | 1.27 ×10⁻⁶ cm/s | 1.38 µM | Not Active
O=S(=O)(c1ccccc1)n1ccc2c(OCCNCCCCCCNc3c4c(nc5ccccc35)CCCC4)cccc21 | 0.0086 µM | 69.2% | 0.00407 µM | 0.0725 µM | – | – | – | – | – | – | – | – | – | –
O=S(=O)(c1ccccc1)n1ccc2c(OCCNCCCNc3c4c(nc5ccccc35)CCCC4)cccc21 | 0.01 µM | 61.1% | 0.0188 µM | 0.0209 µM | – | – | – | – | – | – | – | – | – | –
O=S(=O)(c1ccccc1)n1ccc2c(OCCNCCCCNCc3ccccc3)cccc21 | 0.008 µM | 41.8% | 0.887 µM | – | – | – | Not Active | – | – | – | – | – | – | –
O=S(=O)(c1ccccc1)n1ccc2c(OCCNCCCNCc3ccccc3)cccc21 | 0.008 µM | 53.2% | 0.701 µM | – | – | – | Not Active | – | – | – | – | – | – | –
O=S(=O)(c1ccccc1)n1ccc2c(OCCNCCCCNc3c4c(nc5ccccc35)CCCC4)cccc21 | 0.0035 µM | 77.4% | 0.00939 µM | 0.0575 µM | – | – | – | – | – | 0.01 µM | – | – | – | –
COc1ccc(CNCCNCCOc2cccc3c2ccn3S(=O)(=O)c2ccccc2)cc1 | 0.0035 µM | 63.8% | 2.07 µM | – | 41.4% | 64% | Not Active | – | – | – | – | – | – | –
O=S(=O)(c1ccccc1)n1ccc2c(OCCNCCNCc3ccccc3Cl)cccc21 | 0.003 µM | 57% | 0.586 µM | 4.24 µM | 27.5% | 53.5% | – | – | – | 0.058 µM | – | – | – | –
O=S(=O)(c1ccccc1)n1ccc2c(OCCNCCNCc3cccc(Cl)c3)cccc21 | 0.002 µM | 64.3% | 1.07 µM | 4.84 µM | 25.7% | 57.5% | – | – | – | – | – | – | – | –
O=S(=O)(c1ccccc1)n1ccc2c(OCCNCCNCc3ccc(Cl)cc3)cccc21 | 0.001 µM | 60.6% | 1.99 µM | – | 31.9% | 58.2% | Not Active | – | – | – | – | – | – | –
O=S(=O)(c1ccccc1)n1ccc2c(OCCNCCNCc3cccc(C(F)(F)F)c3)cccc21 | 0.0017 µM | inactive | 2.12 µM | – | 37.1% | 79.4% | Not Active | – | – | 0.007 µM | – | – | – | –
O=S(=O)(c1ccccc1)n1ccc2c(OCCNCCNCc3ccccc3)cccc21 | 0.003 µM | 55% | 0.528 µM | 2.87 µM | 26.9% | 58.1% | – | – | – | 0.009 µM | – | – | – | –
Cc1cccc(CNCCNCCOc2cccc3c2ccn3S(=O)(=O)c2ccccc2)c1 | 0.002 µM | 57.4% | 1.07 µM | 4470 µM | 48.5% | 58.8% | – | – | – | – | – | – | – | –
O=S(=O)(c1ccccc1)n1ccc2c(OCCNCCNCc3cc(Cl)cc(Cl)c3)cccc21 | 0.011 µM | 57.2% | 1.66 µM | – | 40.9% | 62.3% | Not Active | – | – | – | – | – | – | –
O=[N+]([O-])c1ccc(CNCCNCCOc2cccc3c2ccn3S(=O)(=O)c2ccccc2)cc1 | 0.002 µM | 57.7% | 4.26 µM | – | 31.6% | 62.3% | Not Active | – | – | – | – | – | – | –
O=S(=O)(c1ccccc1)n1ccc2c(OCCNCCNc3c4c(nc5ccccc35)CCCC4)cccc21 | 0.013 µM | 74.8% | 0.0244 µM | 0.00842 µM | – | – | – | 72% | Not Active | – | 79.6 µM | – | 1.1 µM | Not Active
